Laboratory results reported in article PMC10486429, “Investigations Using Albumin Binders to Modify the Tissue Distribution Profile of Radiopharmaceuticals Exemplified with Folate Radioconjugates” (Cancers, 2023).
Where two headings read alike, the source gives them in different places. Values belong to the molecule of their own block, whether it stands above or below them.

Key:
[1] = target: T1, folate receptor (FR) (Homo sapiens, UniProt P15328); design: method as in PMID 34251183; conditions: IGROV-1 cells; read-out: KD Value (95% CI); cited from earlier work
T1 construct: endogenous in cells; host or cells: IGROV-1 (human ovarian carcinoma cell line), intact cells on ice

[2] = target: T1, folate receptor (FR); test: FR-binding affinity (KD) of 177Lu-RedFols on IGROV-1 cells; conditions: 1 h at 4 °C, read-out: KD Value (95% CI)
Procedure: (100 µM) to block FRs on the cell surface. The IGROV-1 tumor cells were incubated for 1 h at 4 °C on a shaker, followed by removal of the supernatants and rinsing of the cells twice with PBS. After lysis of the cells with NaOH solution (1 M, 500 µL), the samples were counted for activity using a γ-counter (Wallac Wizard 1480, Perkin Elmer, Waltham, MA, USA). The cpm of the specific binding (determined by subtracting the cpm of the non-specific binding from the cpm of total binding), were plotted against the molar con-centration of the added folate radioconjugates. Non-linear regression analysis was per-formed using GraphPad Prism software (version 8) to obtain KD values from one curve of 3−5 independent experiments, each performed in triplicates.
Results: The results are reported in the main article. […]

[3] = Radiolytic stability of 177Lu-DOTA-ALBs in PBS (HPLC); assay type: physicochemical; conditions: room temperature, 100 MBq/500 µL PBS
Procedure: The radiolabeling of DOTA-ALBs was carried out under standard labeling conditions at pH 4.5. The ligands (10−100 μM) were mixed with lutetium-177 (no-carrier added [^177Lu]LuCl3; in 0.04 M HCl; ITM GmbH Medical Isotopes, Munich, Germany) to reach molar activities of 25–50 MBq/nmol (Supplementary Materials Section S2). An analytical HPLC system equipped with a C18 column and a radioactivity detector was used for quality control of the radiolabeled DOTA-ALBs (Supplementary Materials Section S2). The ^177Lu-DOTA-ALBs were used for preclinical investigations without separation of the labeled from the unlabeled fraction. The radiolytic stability of the ^177Lu-DOTA-ALBs (50 MBq/nmol) diluted in phosphate-buffered saline (PBS; 100 MBq/500 μL) was assessed in vitro in the absence and presence of L-ascorbic acid (Supplementary Materials Section S3). The n-octanol/PBS distribution coefficients (logD values) were determined using a shake-flask method according to an established protocol (Supplementary Materials Section S4). The logD values were analyzed using a one-way ANOVA with Tukey’s multiple comparisons post-test using GraphPad Prism software (version 8). A p-value of <0.05 was considered a statistically significant difference. […]
S2. Radiolabeling of DOTA-ALBs with Lutetium-177
Purpose: The DOTA-ALBs were labeled with lutetium-177 for subsequent in vitro and […]
Methods: The DOTA-ALBs were dissolved in Milli-Q water at a concentration of 1 mM. Radiolabeling was performed by incubation of the respective DOTA-ALBs with lutetium-177 (no-carrier-added, in 0.04 M HCl; ITM Medical Isotopes GmbH, Munich, Germany) at 95 °C for 10 min in a 1:5 (v/v) mixture of sodium acetate (0.5 M) and HCl (0.05 M) at pH ~4.5 as previously reported. Quality control was performed by reversed-phase HPLC using an aliquot of the radiolabeled DOTA-ALBs (⁓1.5 MBq) diluted in Milli-Q water containing penta-sodium diethylenetriamine pentaacetic acid (Na5-DTPA; 50 µM). The HPLC system (Merck Hitachi LaChrom HPLC) was equipped with a D-7000 interface, a radioactivity detector (LB 508, Berthold Technologies GmbH), a L-6200A pump and a reversed-phase C18 column (XterraTM, 5 µm, 4.6×150 mm, Waters, USA). A linear gradient of 0.1% TFA in Milli-Q water (95–20%) and MeCN (5–80%) over 15 min was used as a mobile phase at a 1 mL/min flow rate. […]
to 50 MBq/nmol. The 177Lu-DOTA-ALBs were used without further purification for their in vitro and in vivo evaluation.
S3. Radiolytic Stability of 177Lu-DOTA-ALBs
Purpose: The stability of each 177Lu-labeled DOTA-ALB was assessed at a high activ-ity concentration to assess potential radiolytic degradation in the absence and presence of […]
Methods: After quality control of the labeled DOTA-ALBs using HPLC (t0), the radio-labeled DOTA-ALBs (50 MBq/nmol) were diluted in PBS pH 7.4 to obtain an activity con-centration of 100 MBq/500 µL. The samples were incubated at room temperature in the absence or presence of L-ascorbic acid (3 mg). Sodium acetate solution (0.5 M, pH 8.0, 150 µL) was added to the samples containing L-ascorbic acid in order to adjust the pH value to ⁓6.5. The integrity of the radiolabeled DOTA-ALBs was assessed after a 4 h- and 24 h-incubation period using HPLC as described above (Supplementary Material, Section S2). The HPLC chromatograms were analyzed by determination of the peak area of the radio-labeled DOTA-ALBs, the released lutetium-177 as well as potential degradation products of unknown structure. The quantity of the intact product was expressed as per-centage of the sum of integrated peak areas of the entire chromatogram and set in relation to the original value determined at t0 (radiochemical purity ≥95% set as 100%).
Results: The results are reported in the main article and presented together with the retention times of the product peak in Table S2.
Table S2. Radiolytic stability of 177Lu-DOTA-ALBs after incubation in the absence or presence of L-ascorbic acid at room temperature (average of n=2 individually performed experiments). […]

T1 sequence (P15328 25-257): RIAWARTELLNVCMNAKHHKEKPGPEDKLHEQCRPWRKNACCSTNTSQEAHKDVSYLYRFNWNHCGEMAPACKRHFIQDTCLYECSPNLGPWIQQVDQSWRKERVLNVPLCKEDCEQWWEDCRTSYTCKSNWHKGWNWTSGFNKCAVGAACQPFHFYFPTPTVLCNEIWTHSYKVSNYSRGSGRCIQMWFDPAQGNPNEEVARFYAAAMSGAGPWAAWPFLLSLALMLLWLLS

Compound: CN1c2c(nc(N)[nH]c2=O)NCC1CNc1ccc(C(=O)NC(CCC(=O)NC(CCCCNC(=O)CN2CCN(CC(=O)[O-])CCN(CC(=O)[O-])CCN(CC(=O)[O-])CC2)C(=O)NC(CCCCNC(=O)CCCc2ccc(I)cc2)C(=O)O)C(=O)O)cc1.[177Lu+3] (stereo not drawn) [[^177Lu]Lu-6S-RedFol-1]
Kd [1]: 1.7 nM

Kd [2]: 4.7 nM
Compound: CN1c2c(nc(N)[nH]c2=O)NC[C@H]1CNc1ccc(C(=O)N[C@@H](CCC(=O)N[C@@H](CCCCNC(=O)CN2CCN(CC(=O)O)CCN(CC(=O)O)CCN(CC(=O)O)CC2)C(=O)N[C@@H](CCCCNC(=O)c2ccc(CNC(=O)CCCc3ccc(I)cc3)cc2)C(=O)O)C(=O)O)cc1 [[^177Lu]Lu-6R-RedFol-3, metal not drawn]

Compound: O=C(O)CN1CCN(CC(=O)O)CCN(CC(=O)NCCC(=O)N[C@@H](CCCCNC(=O)c2ccc(CNC(=O)CCCCc3ccc(I)cc3)cc2)C(=O)O)CCN(CC(=O)O)CC1.[177Lu] [[^177Lu]Lu-DOTA-ALB-25]
Intact radioligand ([3]; with L-ascorbic acid, 4 h): 99%
Intact radioligand ([3]; with L-ascorbic acid, 24 h): 97%
Intact radioligand ([3]; without L-ascorbic acid, 4 h): 91%
Intact radioligand ([3]; without L-ascorbic acid, 24 h): 41%

Compound: CN1c2c(nc(N)[nH]c2=O)NC[C@H]1CNc1ccc(C(=O)N[C@@H](CCC(=O)N[C@@H](CCCCNC(=O)CN2CCN(CC(=O)O)CCN(CC(=O)O)CCN(CC(=O)O)CC2)C(=O)N[C@@H](CCCCNC(=O)c2ccc(CNC(=O)CCCCc3ccc(I)cc3)cc2)C(=O)O)C(=O)O)cc1 [[^177Lu]Lu-6R-RedFol-25, metal not drawn]
Kd [2]: 3.6 nM

Compound: CN1c2c(nc(N)[nH]c2=O)NCC1CNc1ccc(C(=O)NC(CCC(=O)NC(CCCCNC(=O)CN2CCN(CC(=O)[O-])CCN(CC(=O)[O-])CCN(CC(=O)[O-])CC2)C(=O)NC(CCCCNC(=O)c2ccc(CNC(=O)CCCCc3ccc(I)cc3)cc2)C(=O)O)C(=O)O)cc1.[177Lu+3] (stereo not drawn) [[^177Lu]Lu-6S-RedFol-25]
Kd [2]: 2.2 nM

Kd [2]: 4.7 nM
Compound: CN1c2c(nc(N)[nH]c2=O)NC[C@H]1CNc1ccc(C(=O)N[C@@H](CCC(=O)N[C@@H](CCCCNC(=O)CN2CCN(CC(=O)O)CCN(CC(=O)O)CCN(CC(=O)O)CC2)C(=O)N[C@@H](CCCCNC(=O)CCCCc2ccc(I)cc2)C(=O)O)C(=O)O)cc1 [[^177Lu]Lu-6R-RedFol-24, metal not drawn]

Compound: CN1c2c(nc(N)[nH]c2=O)NCC1CNc1ccc(C(=O)NC(CCC(=O)NC(CCCCNC(=O)CN2CCN(CC(=O)[O-])CCN(CC(=O)[O-])CCN(CC(=O)[O-])CC2)C(=O)NC(CCCCNC(=O)c2ccc(CNC(=O)CCCc3ccc(I)cc3)cc2)C(=O)O)C(=O)O)cc1.[177Lu+3] (stereo not drawn) [[^177Lu]Lu-6S-RedFol-3]
Kd [2]: 2.8 nM

Compound: O=C(O)CN1CCN(CC(=O)O)CCN(CC(=O)NCCC(=O)N[C@@H](CCCCNC(=O)CCCc2ccc(I)cc2)C(=O)O)CCN(CC(=O)O)CC1.[177Lu] [[^177Lu]Lu-DOTA-ALB-1]
Intact radioligand ([3]; with L-ascorbic acid, 4 h): 99%
Intact radioligand ([3]; with L-ascorbic acid, 24 h): 96%
Intact radioligand ([3]; without L-ascorbic acid, 4 h): 92%
Intact radioligand ([3]; without L-ascorbic acid, 24 h): 51%

Compound: O=C(O)CN1CCN(CC(=O)O)CCN(CC(=O)NCCC(=O)N[C@@H](CCCCNC(=O)c2ccc(CNC(=O)CCCc3ccc(I)cc3)cc2)C(=O)O)CCN(CC(=O)O)CC1.[177Lu] [[^177Lu]Lu-DOTA-ALB-3]
Intact radioligand ([3]; with L-ascorbic acid, 4 h): 99%
Intact radioligand ([3]; with L-ascorbic acid, 24 h): 97%
Intact radioligand ([3]; without L-ascorbic acid, 4 h): 89%
Intact radioligand ([3]; without L-ascorbic acid, 24 h): 39%

Compound: CN1c2c(nc(N)[nH]c2=O)NC[C@H]1CNc1ccc(C(=O)N[C@@H](CCC(=O)N[C@@H](CCCCNC(=O)CN2CCN(CC(=O)O)CCN(CC(=O)O)CCN(CC(=O)O)CC2)C(=O)N[C@@H](CCCCNC(=O)CCCc2ccc(I)cc2)C(=O)O)C(=O)O)cc1 [[^177Lu]Lu-6R-RedFol-1, metal not drawn]
Kd [1]: 2.6 nM

Compound: O=C(O)CN1CCN(CC(=O)O)CCN(CC(=O)NCCC(=O)N[C@@H](CCCCNC(=O)CCCCc2ccc(I)cc2)C(=O)O)CCN(CC(=O)O)CC1.[177Lu] [[^177Lu]Lu-DOTA-ALB-24]
Intact radioligand ([3]; with L-ascorbic acid, 4 h): 99%
Intact radioligand ([3]; with L-ascorbic acid, 24 h): 95%
Intact radioligand ([3]; without L-ascorbic acid, 4 h): 88%
Intact radioligand ([3]; without L-ascorbic acid, 24 h): 39%
